US7897610B2, “Use of benzo[c]quinolizinium derivatives for the treatment of diseases that are linked to smooth muscle cell constriction” (Centre National de la Recherche Scientifique, priority 2002, dated 2011)
“And” between values parts separate entries of the source, which are not always exact repeats. Identical values can stand only once. “Also recorded” adds a separate entry of the source. Like-named read-outs stand apart in the source and are kept apart here.

Tests used:
[1] = test system: aorta rings isolated from rats; experiment: Isolated organ technique: relaxation of rat aorta rings pre-contracted in hyperpotassium solution (80 mM KCl); format: cell-based; conditions: for EC50: Rattus norvegicus
Description: The experiments are carried out on the thoracic aorta of male rats of Wistar strain weighing 200 to 250 g, 7 to 8 weeks of age. The rat is stunned then placed in the supine position. After thoracotomy, the segment of the aorta comprised between the diaphragm and the right aortic arch is excised. The portion of aorta is immediately placed in a buffered physiological solution of modified Krebs type. The aorta is sectioned into 5 mm rings.
For certain preparations, the endothelium is removed mechanically using a needle surrounded by a wire which is turned in the aorta ring.
The aorta rings, after dissection, are suspended between two hooks one of which is fixed and the other is mobile. This mounting is placed in a chamber of Plexiglas (Emka Technologies), thermostatically-controlled at 37° C., containing 5 ml of physiological solution oxygenated by a gas mixture (95% O2-5% CO2). The thermostatically-controlled enclosure is supplied by a water bath. The mobile hook is suspended with a sensor connected to the interface (electromechanical transducer). This interface is connected on the one hand to an amplifier (amplification of the signal) and on the other hand to a computer (display and analysis of the signal). The IOX 1.565 program enables the processing and display of the signals on the computer screen. The Data Analyst and Prism 3.0 programs allow analysis of the results.
After mounting the aorta rings in the experimental device, these are stretched at a basal tension of 2.5 g. This tension corresponds to the optimum point of their tension/length relationship. Waiting for a stable state in the reference physiological medium is carried out over a period of approximately 1 hour with washing every 20 minutes. Following this equilibration period, the different experiments are carried out.
In order to be free of the relaxation/contraction mechanisms due to the endothelium, certain preparations are made devoid of the latter by mechanical destruction. In order to ensure effective destruction of the endothelium, a cholinergic test (ACh 10^−4 M) is carried out at the end of the first period of equilibration, on preparations pre-contracted by a hyperpotassium solution (80 mM of KCl).
Following this test, the preparations are subjected to several successive washings in order to re-establish a stable state. Once a stable state is reached, the different experiments can be carried out. The contractures due to the hyperpotassium solutions are obtained by the total replacement of the reference physiological solution by the hyperpotassium solution. The administration of the pharmacological substances is carried out in a cumulative fashion and directly in the isolated organ chambers whilst paying attention that the additional volume is not too high. The application of each new concentration only occurs after stabilization. In order to be aware of the reactivity state of the preparation at the end of manipulation, a hyperpotassium or noradrenergic test is carried out. If the preparation reacts in the direction of a contracture, the test is valid.
The composition of the reference physiological solution is a solution of modified Krebs type: NaCl: 120 mM; KCl: 4.7 mM; CaCl2: 2.5 mM; MgCl2: 1.2 mM; NaH2PO4: 1.2 mM; NaHCO3: 15 mM; Hepes: 10 mM; Glucose: 11 mM; pH=7.4. Hyperpotassium solutions containing different concentrations of KCl have been prepared according to the same principle. These solutions are used to provoke a contracture of the aorta ring by depolarisation of the smooth muscle cells. The hyperpotassium solution mainly used in the experiments contains 80 mM of KCl.

[2] = biological target: T1, CFTR (Rattus norvegicus, UniProt P34158); experiment: Iodide efflux in muscle cell freshly dissociated from rat aorta; format: cell-based
T1 construct: CFTR is detected at the level of its messenger RNA and at the level of protein in the smooth muscles; from tissue; host or cells: smooth muscle cells freshly dissociated from rat aorta
T1 sequence (P34158 whole entry): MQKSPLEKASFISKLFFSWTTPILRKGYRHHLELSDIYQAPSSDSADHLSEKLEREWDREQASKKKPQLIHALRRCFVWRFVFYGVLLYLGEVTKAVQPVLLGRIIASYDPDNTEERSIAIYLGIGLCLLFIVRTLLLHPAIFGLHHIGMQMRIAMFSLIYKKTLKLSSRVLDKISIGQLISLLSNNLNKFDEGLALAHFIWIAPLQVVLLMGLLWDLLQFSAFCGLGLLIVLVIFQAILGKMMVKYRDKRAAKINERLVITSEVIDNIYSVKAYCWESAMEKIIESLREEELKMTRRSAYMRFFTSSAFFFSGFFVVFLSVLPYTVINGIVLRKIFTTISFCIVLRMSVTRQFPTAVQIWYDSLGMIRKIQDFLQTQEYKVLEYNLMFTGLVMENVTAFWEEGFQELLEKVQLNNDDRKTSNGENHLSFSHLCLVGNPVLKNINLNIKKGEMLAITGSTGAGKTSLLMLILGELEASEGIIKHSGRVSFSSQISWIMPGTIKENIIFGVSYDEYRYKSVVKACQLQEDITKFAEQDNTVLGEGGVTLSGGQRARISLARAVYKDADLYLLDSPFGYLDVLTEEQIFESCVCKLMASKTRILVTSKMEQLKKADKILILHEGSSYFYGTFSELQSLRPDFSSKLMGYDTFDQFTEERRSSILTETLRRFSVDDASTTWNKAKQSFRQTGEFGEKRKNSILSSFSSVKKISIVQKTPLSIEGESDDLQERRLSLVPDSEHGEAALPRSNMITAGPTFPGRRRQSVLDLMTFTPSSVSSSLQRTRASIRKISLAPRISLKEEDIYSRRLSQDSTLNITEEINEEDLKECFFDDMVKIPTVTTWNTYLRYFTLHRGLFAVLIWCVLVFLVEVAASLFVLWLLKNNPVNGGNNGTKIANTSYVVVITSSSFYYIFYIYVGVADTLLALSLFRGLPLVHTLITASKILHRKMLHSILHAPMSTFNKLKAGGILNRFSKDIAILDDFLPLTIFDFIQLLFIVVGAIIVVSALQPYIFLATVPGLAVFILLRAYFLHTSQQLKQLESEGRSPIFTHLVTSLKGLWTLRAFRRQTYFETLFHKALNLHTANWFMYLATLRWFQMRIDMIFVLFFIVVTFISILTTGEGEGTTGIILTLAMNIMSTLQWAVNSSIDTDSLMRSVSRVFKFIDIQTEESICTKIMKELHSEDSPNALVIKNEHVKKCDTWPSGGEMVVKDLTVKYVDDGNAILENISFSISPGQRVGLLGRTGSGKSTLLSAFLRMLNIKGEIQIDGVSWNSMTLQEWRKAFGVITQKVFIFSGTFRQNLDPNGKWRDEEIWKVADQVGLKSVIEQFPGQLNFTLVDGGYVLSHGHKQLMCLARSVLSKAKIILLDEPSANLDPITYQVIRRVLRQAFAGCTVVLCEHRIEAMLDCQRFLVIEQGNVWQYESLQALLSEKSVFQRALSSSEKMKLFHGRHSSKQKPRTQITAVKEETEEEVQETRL
Source text: (§1) CFTR is detected at the level of its messenger RNA and at the level of protein in the smooth muscles. As negative control the inventors used musculus skeleti of rat at the level of which neither the messenger nor the protein are present. CFTR is detectable in the smooth muscle by immunoprecipitation and phosphorylation in vitro by the protein kinase A. The pharmacology of CFTR has been studied using iodide efflux in muscle cell freshly dissociated from rat aorta. […] Its inhibition profile is similar to that of epithelial CFTR (sensitivity to glibenclamide and DPC but not to Calixarene). […] Moreover, a greater contraction is observed in the KO animals in response to the constricting agents.

[3] = test system: aorta rings of Cftr+/+ mice; experiment: Vasorelaxation of aorta rings contracted by 80 mM K+, Cftr+/+ mice; format: cell-based, mouse; conditions: for effect on pre-contracted aorta: Cftr+/+ rat and mouse tissues
Source text: as §1
(§2) a, graphs showing the vasorelaxation induced by the VIP neuropeptide (Vasoactive Intestinal Polypeptide) of aortas without endothelium of Cftr^+/+ (left) and Cftr^−/− (right) mice. The aorta rings are reversibly contracted by a hyperpotassium solution (solution of 80 mM K^+) then the effect of 300 nM VIP is measured. The absence of endothelium is verified by the addition of acetylcholine (ACh, 10^−5 M).
(§3) This effect is absent in Cftr^−/− mice (n=6). Average±SEM*P<0.05, ** P<0.01, *** P<0.001.

[4] = test system: anionic transport in smooth muscle cells of aorta rings; experiment: Iodide efflux (125I) on rat aorta rings; format: cell-based; design: key to iodide discharge speed / iodide discharge speed after stimulation: Ln(125I t1/125I t2)/(t1−t2), per min; key to increase of discharge speed over basal state: difference of Ln(125I t1/125I t2)/(t1−t2) values, per min; conditions: for iodide discharge speed / increase of discharge speed over basal state: hyperpotassium medium; for activation of anionic transport / discharge speed: smooth muscle cells of aorta rings
Description: The iodide efflux technique, perfected by Venglarick et al. (1990), allows measurement of the movement of ions and is described in detail in Derand et al. (2001).
The aorta rings of equivalent size, are incubated in 1 ml of filling solution composed of physiological solution of modified Krebs type or hyperpotassium solution (80 mM KCl) supplemented with 1.5 μl/ml of Na ^125I and 0.1 μl/ml of KI. After incubation for 1 hour 30 minutes at 37° C., 4 successive rinsings of two minutes are carried out in 1 ml of appropriate physiological solution (normal Krebs or hyperpotassium solution). An iodide efflux kinetics of the aorta rings is carried out for 12 min. After each minute, the content of each well is sampled and placed in hemolysis tubes, and radioactivity is counted with a gamma counter (Packard, Cobra II). At the 12th minute, the aorta rings are solubilized in Sodium Dodecyl Sulphate (SDS 0.1%)+NaOH (0.1 M). This stage allows the recovery of the residual radioactivity by cell destruction.
The total radioactivity of the cells is calculated by the addition of the counts per minute (cpm) of each collected fraction and of the cpm of the solubilized fraction (residual radioactivity). The curves are plotted expressing the efflux as a percentage of the cell content accumulated in the medium as a function of time. For example, the value attributed at time tn, corresponds to: 100×(Σ cpm obtained from t0 to tn)/total radioactivity. The instantaneous discharge speed is presented according to the formula Ln(^125It1/^125It2)/(t1−t2), where t1 and t2 are two successive times and ^125It1 and ^125It2 are the effluxes measured at time t1 and t2. In order to evaluate the effect of a substance, the activation ratio r=discharge speed after stimulation/discharge speed before stimulation is determined. The results (average±SEM) are compared using Student's statistical test for a paired value.

[5] = test system: human mammary arteries; experiment: Vasorelaxant effect on human mammary arteries; format: cell-based
Source text: The pharmacological effects of the compounds of the benzo[c]quinolizinium family, CFTR activators: 6-hydroxy-10-chlorobenzo[c]quinolizinium chloride (reference name: MPB-07) and 5-butyl-6-hydroxy-10-chlorobenzo[c]quinolizinium chloride (reference name: MPB-91), were studied on aorta rings isolated from rats and from human mammary arteries.

[6] = test system: aorta rings of Cftr-/- mice; experiment: Vasorelaxation of aorta rings contracted by 80 mM K+, Cftr-/- mice; format: cell-based, mouse; conditions: pre-contracted aorta
Source text: as §1, §2, §3

[7] = biological target: T2, CFTR (Homo sapiens, UniProt P13569); conditions: epithelial cells; cited from earlier work
T2 construct: In cells expressing the CFTR protein in an endogenous manner
T2 sequence (P13569 whole entry): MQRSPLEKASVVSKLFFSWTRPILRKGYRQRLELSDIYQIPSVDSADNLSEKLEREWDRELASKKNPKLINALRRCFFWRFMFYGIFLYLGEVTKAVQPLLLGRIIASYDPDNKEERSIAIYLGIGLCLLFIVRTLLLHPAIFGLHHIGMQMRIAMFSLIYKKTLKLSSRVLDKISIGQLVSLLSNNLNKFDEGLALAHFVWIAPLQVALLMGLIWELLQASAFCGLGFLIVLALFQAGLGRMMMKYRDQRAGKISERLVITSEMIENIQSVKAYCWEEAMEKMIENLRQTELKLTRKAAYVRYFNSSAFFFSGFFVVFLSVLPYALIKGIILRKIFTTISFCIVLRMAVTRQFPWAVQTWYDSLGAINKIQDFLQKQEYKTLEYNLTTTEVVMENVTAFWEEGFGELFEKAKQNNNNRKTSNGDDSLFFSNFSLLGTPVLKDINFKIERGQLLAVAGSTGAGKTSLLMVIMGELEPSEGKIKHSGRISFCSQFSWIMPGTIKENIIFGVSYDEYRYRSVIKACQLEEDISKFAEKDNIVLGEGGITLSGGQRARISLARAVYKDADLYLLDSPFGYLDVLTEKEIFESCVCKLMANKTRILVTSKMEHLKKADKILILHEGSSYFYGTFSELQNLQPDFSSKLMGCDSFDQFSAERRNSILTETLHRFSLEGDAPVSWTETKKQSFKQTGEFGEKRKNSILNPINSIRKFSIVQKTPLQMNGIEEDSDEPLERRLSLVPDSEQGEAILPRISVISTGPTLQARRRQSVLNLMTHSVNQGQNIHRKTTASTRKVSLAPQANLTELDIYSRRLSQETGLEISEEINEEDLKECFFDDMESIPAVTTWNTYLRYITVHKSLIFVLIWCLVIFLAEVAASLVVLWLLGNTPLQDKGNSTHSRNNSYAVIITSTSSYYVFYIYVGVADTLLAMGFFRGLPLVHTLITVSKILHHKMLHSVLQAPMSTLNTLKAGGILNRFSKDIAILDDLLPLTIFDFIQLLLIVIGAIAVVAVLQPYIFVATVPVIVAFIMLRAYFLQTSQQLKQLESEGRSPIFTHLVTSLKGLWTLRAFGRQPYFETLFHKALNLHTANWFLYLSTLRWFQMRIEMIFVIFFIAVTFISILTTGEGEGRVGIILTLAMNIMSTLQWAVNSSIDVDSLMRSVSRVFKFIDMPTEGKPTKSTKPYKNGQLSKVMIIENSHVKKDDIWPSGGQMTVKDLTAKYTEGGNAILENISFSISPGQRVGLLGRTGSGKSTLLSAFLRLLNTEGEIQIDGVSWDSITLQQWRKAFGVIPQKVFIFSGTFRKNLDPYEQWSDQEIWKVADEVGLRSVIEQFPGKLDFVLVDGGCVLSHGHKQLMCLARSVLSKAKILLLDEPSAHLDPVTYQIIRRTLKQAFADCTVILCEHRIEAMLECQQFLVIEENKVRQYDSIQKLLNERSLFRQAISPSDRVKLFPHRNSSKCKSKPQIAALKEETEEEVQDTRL

[8] = test system: aorta rings with endothelium pre-contracted by arterenol; experiment: Isolated organ technique: relaxation of rat aorta rings pre-contracted by arterenol; format: cell-based
Description: The experiments are carried out on the thoracic aorta of male rats of Wistar strain weighing 200 to 250 g, 7 to 8 weeks of age. The rat is stunned then placed in the supine position. After thoracotomy, the segment of the aorta comprised between the diaphragm and the right aortic arch is excised. The portion of aorta is immediately placed in a buffered physiological solution of modified Krebs type. The aorta is sectioned into 5 mm rings. The aorta rings, after dissection, are suspended between two hooks one of which is fixed and the other is mobile. […] The thermostatically-controlled enclosure is supplied by a water bath. The mobile hook is suspended with a sensor connected to the interface (electromechanical transducer). This interface is connected on the one hand to an amplifier (amplification of the signal) and on the other hand to a computer (display and analysis of the signal). […] The Data Analyst and Prism 3.0 programs allow analysis of the results. After mounting the aorta rings in the experimental device, these are stretched at a basal tension of 2.5 g. This tension corresponds to the optimum point of their tension/length relationship. Waiting for a stable state in the reference physiological medium is carried out over a period of approximately 1 hour with washing every 20 minutes. Following this equilibration period, the different experiments are carried out. […]

[9] = comparison of FIG. 6, read-out: EC50, dose/response curves
[10] = summary statement of results, read-out: EC50, vasorelaxant effect
[11] = without endothelium, 250 μM, 1 minute after addition
[12] = without endothelium, 250 μM, 2 minutes after addition

## CC(=O)OCC[N+](C)(C)C [ACh, acetylcholine, reference compound]
[1]; rings with endothelium, 10^-4 M
  relaxation (cholinergic test): approximately 40%

## O=C(O)c1ccccc1Nc1ccccc1 [DPC]
[2]
  inhibition profile of iodide efflux: sensitivity

## CC(C)Cn1c(=O)n(C)c(=O)c2[nH]cnc21 [IBMX]
[2]
  activation of iodide efflux: activate iodide efflux

## Oc1cc2cccc[n+]2c2c(Cl)cccc12.[Cl-] [MPB-07, 6-hydroxy-10-chlorobenzo[c]quinolizinium chloride]
[1]; aorta rings with endothelium, 80 mM KCl, n=14, read-out: EC50, relaxation
  EC50: 132.4 ± 0.02 µM
[1]; aorta rings without endothelium, 80 mM KCl, n=7, read-out: EC50, relaxation
  EC50: 92.9 ± 0.02 µM
[1]; [9]
  EC50: 133 µM
[1]; [10]
  EC50: 134 µM
[1]; with endothelium + L-NAME 10^-4 M, n=8, read-out: EC50, relaxation
  EC50: 51.8 ± 0.008 µM
[1]; without endothelium + L-NAME, n=7, read-out: EC50, relaxation
  EC50: 55.1 ± 0.2 µM
[1]; single dose 135 μM, with endothelium, after washing
  reversibility of the relaxing effect: reversible
[1]; with endothelium + L-NAME, 40 μM
  relaxation: 33±6.15%
[1]; with endothelium + L-NAME, 160 μM
  relaxation: 98±1.3%
[1]; with endothelium, 80 μM
  relaxation: 24±1.6%
[1]; with endothelium, 160 μM
  relaxation: 64%
[1]; with endothelium, 250 μM
  relaxation: 88%
[1]; with endothelium, 500 μM
  relaxation: 96±1.75% and 100%
[1]; without endothelium, 80 μM
  relaxation: 37±5.6%
[1]; without endothelium, 250 μM
  relaxation: 99±1%
[3]
  effect on pre-contracted aorta: relaxation of the pre-contracted aorta
[3]; Mus musculus, aorta rings contracted by 80 mM K+, n=6
  IC50: 37 ± 1.17 µM
[4]; L-NAME 10^-4 M, 250 μM, 1 minute after addition
  iodide discharge speed: 0.103±0.017
[4]; L-NAME 10^-4 M, 250 μM, 2 minutes after addition
  iodide discharge speed: 0.110±0.015
[4]; L-NAME 10^-4 M, 250 μM, 3 minutes after addition
  iodide discharge speed: 0.119±0.011
[4]; L-NAME, 1 minute
  increase of discharge speed over basal state: 0.044
[4]; L-NAME, 2 minutes
  increase of discharge speed over basal state: 0.051
[4]; L-NAME, 3 minutes
  increase of discharge speed over basal state: 0.060
[4]
  activation of anionic transport / discharge speed: activates anionic transport
[4]; [11]
  iodide discharge speed: 0.076±0.008
[4]; [12]
  iodide discharge speed: 0.099±0.013
[4]; without endothelium, 1 minute
  increase of discharge speed over basal state: 0.023
[4]; without endothelium, 2 minutes
  increase of discharge speed over basal state: 0.046
[4]; without endothelium, normal physiological medium, 250 μM, n=3
  iodide discharge speed after stimulation: 0.076±0.016
[5]
  vasorelaxant effect: reversible and slow dose-dependent vasorelaxant effect
[6]
  vasorelaxation in Cftr-/- mice: very considerably reduced; also recorded: absent
[7]
  activity on the CFTR channel: activators of this ion channel
[8]; 10 μM, arterenol 10^-4 M, after 2 hours 30 minutes
  relaxation: 90±9%

## O=c1cc2ccccn2c2c(Cl)cccc12 [MPB-70, 10-chlorobenzo[c]quinolizine-6-one, reference compound]
[1]; with endothelium, 160 μM
  relaxation: 27%
[1]; with endothelium, 250 μM
  relaxation: 42%
[1]; with endothelium, 500 μM
  relaxation: 46%
[4]
  activation of anionic transport / discharge speed: no increase in the discharge speed
[4]; [11]
  iodide discharge speed: 0.053±0.003
[4]; [12]
  iodide discharge speed: 0.055±0.005
[7]
  activity on the CFTR channel: inactive on CFTR of epithelial cells

## CCCCc1c(O)c2cccc(Cl)c2[n+]2ccccc12.[Cl-] [MPB-91, 5-n-Butyl-10-chloro-6-hydroxybenzo[c]quinolizinium chloride]
[1]; [9]
  EC50: 21 µM
[1]; [10]
  EC50: 21 µM
other
  melting point: 160 °C

## Nc1ncnc2c1nc(Sc1ccc(Cl)cc1)n2[C@@H]1O[C@@H]2COP(=O)(O)O[C@H]2[C@H]1O [cpt-cAMP]
[2]
  activation of iodide efflux: activate iodide efflux

## COc1ccc(Cl)cc1C(=O)NCCc1ccc(S(=O)(=O)NC(=O)NC2CCCCC2)cc1 [glibenclamide]
[2]
  inhibition profile of iodide efflux: sensitivity

## COc1ccc(CCN(C)CCCC(C#N)(c2ccc(OC)c(OC)c2)C(C)C)cc1OC (stereo not shown) [verapamil, Verapamil, reference compound]
[8]; 200 μM, added after MPB-07 10 μM
  effect on rapid contracture oscillations: stops these variations

## Vasoactive Intestinal Polypeptide [VIP, reference compound]
[3]
  effect on pre-contracted aorta: relaxation of the pre-contracted aorta
[2]
  activation of iodide efflux: activate iodide efflux
[6]
  vasorelaxation in Cftr-/- mice: very considerably reduced
